Assay type in all cases: biochemical
Experiment [1] has as its target p300 (Homo sapiens, UniProt Q09472). The experiment in a line: radioisotope […]Ac-CoA HAT assay, […] probe, […] activity lost. The conditions noted are these: read-out: % activity lost at 50 μM.
The target in experiment [2] is T1, PCAF (Homo sapiens, UniProt Q92831). The experiment is described as follows: radioisotope […]Ac-CoA HAT assay, […] probe.
Experiment [3] addresses T1, PCAF. The experiment in a line: CPM fluorescent HAT assay with H3-20 and Ac-CoA.
In experiment [4] the target is Tip60 (Homo sapiens, UniProt Q92993). The experiment in a line: CPM fluorescent HAT assay with H4-20 and Ac-CoA.
Tip60, sequence (Q92993 whole entry): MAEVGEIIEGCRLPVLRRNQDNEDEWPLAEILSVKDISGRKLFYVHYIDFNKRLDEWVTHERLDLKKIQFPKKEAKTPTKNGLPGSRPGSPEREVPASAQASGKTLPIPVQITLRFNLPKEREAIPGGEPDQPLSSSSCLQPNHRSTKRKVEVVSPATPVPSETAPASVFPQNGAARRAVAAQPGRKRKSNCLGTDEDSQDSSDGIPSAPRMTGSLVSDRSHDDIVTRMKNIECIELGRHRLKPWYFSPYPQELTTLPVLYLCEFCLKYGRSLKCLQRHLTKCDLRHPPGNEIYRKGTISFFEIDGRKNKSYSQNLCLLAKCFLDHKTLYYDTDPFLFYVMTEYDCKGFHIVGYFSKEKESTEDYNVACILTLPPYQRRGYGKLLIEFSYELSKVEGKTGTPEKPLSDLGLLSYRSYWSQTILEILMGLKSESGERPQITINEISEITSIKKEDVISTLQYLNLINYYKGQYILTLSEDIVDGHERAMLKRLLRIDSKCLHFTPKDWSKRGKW

T1 sequence (Q92831 493-658): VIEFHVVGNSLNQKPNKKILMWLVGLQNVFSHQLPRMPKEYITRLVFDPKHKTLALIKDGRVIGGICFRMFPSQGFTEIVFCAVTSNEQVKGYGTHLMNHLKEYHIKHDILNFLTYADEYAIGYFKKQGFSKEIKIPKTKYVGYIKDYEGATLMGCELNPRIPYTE
p300, sequence (Q09472 2-2414): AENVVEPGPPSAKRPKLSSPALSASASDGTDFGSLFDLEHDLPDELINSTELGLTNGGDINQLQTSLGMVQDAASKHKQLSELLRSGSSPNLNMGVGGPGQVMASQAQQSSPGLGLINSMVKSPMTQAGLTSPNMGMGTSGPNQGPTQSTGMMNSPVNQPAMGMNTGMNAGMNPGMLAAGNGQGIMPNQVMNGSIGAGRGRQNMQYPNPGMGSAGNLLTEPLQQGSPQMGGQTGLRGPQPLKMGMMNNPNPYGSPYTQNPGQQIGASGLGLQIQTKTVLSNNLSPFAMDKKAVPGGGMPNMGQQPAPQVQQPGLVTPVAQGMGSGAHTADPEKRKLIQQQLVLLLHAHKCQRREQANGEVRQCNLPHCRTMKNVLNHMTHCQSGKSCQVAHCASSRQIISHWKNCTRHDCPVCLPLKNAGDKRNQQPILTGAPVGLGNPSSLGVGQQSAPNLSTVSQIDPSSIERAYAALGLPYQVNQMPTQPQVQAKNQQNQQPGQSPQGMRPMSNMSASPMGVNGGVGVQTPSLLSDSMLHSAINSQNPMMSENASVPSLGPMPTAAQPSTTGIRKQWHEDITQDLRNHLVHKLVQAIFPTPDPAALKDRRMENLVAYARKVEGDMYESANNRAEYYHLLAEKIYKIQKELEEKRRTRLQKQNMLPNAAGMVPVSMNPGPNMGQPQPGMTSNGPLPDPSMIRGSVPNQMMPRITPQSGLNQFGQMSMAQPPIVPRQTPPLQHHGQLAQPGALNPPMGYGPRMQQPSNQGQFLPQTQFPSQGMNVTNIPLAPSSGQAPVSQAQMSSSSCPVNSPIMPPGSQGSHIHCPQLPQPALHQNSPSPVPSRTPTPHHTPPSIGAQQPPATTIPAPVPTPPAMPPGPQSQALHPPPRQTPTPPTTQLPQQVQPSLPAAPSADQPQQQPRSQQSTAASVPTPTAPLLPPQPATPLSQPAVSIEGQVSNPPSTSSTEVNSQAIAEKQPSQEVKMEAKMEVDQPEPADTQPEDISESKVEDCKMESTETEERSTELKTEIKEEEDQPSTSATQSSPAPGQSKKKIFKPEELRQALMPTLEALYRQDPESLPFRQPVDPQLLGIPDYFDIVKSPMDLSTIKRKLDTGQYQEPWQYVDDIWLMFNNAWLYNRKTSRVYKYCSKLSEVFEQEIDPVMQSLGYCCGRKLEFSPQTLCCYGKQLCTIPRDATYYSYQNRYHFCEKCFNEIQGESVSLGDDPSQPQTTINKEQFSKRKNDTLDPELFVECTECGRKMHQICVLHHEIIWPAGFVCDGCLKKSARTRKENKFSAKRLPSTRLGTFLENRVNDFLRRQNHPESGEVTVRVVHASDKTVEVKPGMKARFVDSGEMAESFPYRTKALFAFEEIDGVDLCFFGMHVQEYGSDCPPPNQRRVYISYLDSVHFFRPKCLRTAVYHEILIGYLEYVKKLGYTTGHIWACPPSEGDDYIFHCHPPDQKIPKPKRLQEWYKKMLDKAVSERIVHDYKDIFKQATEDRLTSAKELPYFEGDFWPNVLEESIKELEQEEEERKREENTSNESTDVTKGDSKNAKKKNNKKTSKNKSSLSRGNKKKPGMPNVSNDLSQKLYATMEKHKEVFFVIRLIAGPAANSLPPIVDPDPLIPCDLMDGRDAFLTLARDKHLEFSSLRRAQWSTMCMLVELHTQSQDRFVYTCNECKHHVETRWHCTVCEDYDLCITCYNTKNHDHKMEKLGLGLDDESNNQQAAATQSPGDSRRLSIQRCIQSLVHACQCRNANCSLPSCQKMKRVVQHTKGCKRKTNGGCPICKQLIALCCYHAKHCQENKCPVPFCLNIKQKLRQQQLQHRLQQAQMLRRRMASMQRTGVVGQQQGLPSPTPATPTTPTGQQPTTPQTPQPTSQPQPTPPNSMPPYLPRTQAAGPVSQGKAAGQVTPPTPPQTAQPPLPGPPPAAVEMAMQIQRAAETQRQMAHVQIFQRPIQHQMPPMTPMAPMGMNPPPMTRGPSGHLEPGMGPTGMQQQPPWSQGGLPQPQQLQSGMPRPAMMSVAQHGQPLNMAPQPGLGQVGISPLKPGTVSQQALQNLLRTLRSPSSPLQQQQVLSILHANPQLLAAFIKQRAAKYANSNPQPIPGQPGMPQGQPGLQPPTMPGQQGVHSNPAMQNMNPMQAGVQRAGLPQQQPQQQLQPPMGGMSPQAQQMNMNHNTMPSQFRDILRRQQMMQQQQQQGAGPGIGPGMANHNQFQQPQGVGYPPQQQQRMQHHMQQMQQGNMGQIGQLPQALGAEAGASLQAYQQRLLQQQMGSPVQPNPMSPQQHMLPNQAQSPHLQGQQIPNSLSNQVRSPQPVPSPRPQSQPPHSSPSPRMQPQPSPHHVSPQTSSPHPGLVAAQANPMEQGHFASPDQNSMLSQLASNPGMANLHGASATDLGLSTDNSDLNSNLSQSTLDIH

Take `CCN(CC)c1ccc2c(C)c(-c3ccc(N4C(=O)C=CC4=O)cc3)c(=O)oc2c1` [CPM]: the inhibition at 50 µM in experiment [1] is above 90%. For the same compound, the “radioisotope [14C]Ac-CoA HAT assay, 50 μM probe” value in experiment [2] was “Several compounds (e.g. CPM and P28) also considerably inhibited the activity of PCAF”.

As for `O=C1C=CC(=O)N1c1ccc2ccc3cccc4ccc1c2c34` [P28], the inhibition at 50 µM in experiment [1] was above 90%. As for `CC(=O)N[C@@H](CCCCNC(=O)CSCCNC(=O)CCNC(=O)[C@H](O)C(C)(C)COP(=O)(O)OP(=O)(O)OC[C@H]1O[C@@H](n2cnc3c(N)ncnc32)[C@H](O)[C@@H]1OP(=O)(O)O)C(N)=O` [Lys-CoA], the results for the IC50 in experiment [3] and in experiment [4] were 96 µM and 26 µM, respectively.

The values are drawn from paper PMC3548978 (Analytical and bioanalytical chemistry, 2012).
